Experimental data reported in patent publication US20190365784A1, “USE OF BRASSINOSTEROID ANALOGS FOR THE TREATMENT OF DERMAL DISORDERS BY SELECTIVELY MODULATING LIVER X RECEPTORS (LXR) AND DERMAL DISEASE TREATMENT BY BRASSINOSTEROID ANALOGS ACTING AS SELECTIVE LIVER X RECEPTOR (LXR) MODULATORS” (CONSEJO NACIONAL DE INVESTIGACIONES CIENTÍFICAS Y TÉCNICAS …, priority 2015, published 2019).

How the values were obtained:
TNF-alpha = TNF-alpha expression in UV-irradiated HaCaT cells (real time PCR); type: cell-based, human; details: 10 uM, 24 h after UV (254 nm, 15 J/m^2), normalized to GAPDH
Experimental: (§1) HaCaT cells—a human immortalized keratinocyte cell line—were exposed to 15 J/m^2 UVB (254 nm) irradiation. Twenty four hours after irradiation, the cells were harvested and RNA isolated to assess the expression of LXR-alpha, LXR-beta, ABCA1, TNF-alpha, IL-6, and IL-8 genes. HaCaT cells were cultured in DMEM supplemented with 10% (v/v) fetal bovine serum, penicillin (100 U/mL), streptomycin ([…]) and glutamine (2 mM). […] The expressions of ABCA1, TNF-alpha, IL-6, IL-8, LXR-alpha, and LXR-beta were normalized according to glyceraldehyde-3-phosphate dehydrogenase (GAPDH) expression. The results of three independent assays, carried out in duplicate for each condition, are reported.

IL-8 = IL-8 expression in UV-irradiated HaCaT cells (real time PCR); type: cell-based, human; details: 10 uM, 24 h after UV, normalized to GAPDH
Experimental: as §1

LXR-alpha [1] = test: LXR-alpha expression in UV-irradiated HaCaT cells (real time PCR); type: cell-based, human; details: 10 uM, 24 h after UV, vs. DMSO (UV, 24 h) and GW3965 (UV, 24 h)
Experimental: as §1

LXR-beta = LXR-beta expression in UV-irradiated HaCaT cells (real time PCR); type: cell-based, human; details: 10 uM, 24 h after UV, vs. DMSO (UV, 24 h) and GW3965 (UV, 24 h)
Experimental: as §1

ABCG1 = ABCG1 expression in HL-60 cells (real time PCR); type: cell-based, human; details: 10 uM, 6 h
Experimental: To investigate the effects of Compounds I and II on the expression of three genes involved in lipid metabolism [fatty acid synthase (FAS); and two ATP-dependent cholesterol and phospholipid transporters, such as ABCA1 and ABCG1], human promyelocytic leukemia cells (HL-60) that endogenously express LXR-alpha and LXR-beta were incubated in the presence of either Comp I or Comp II (10 uM), or GW3965 (1 uM) for 6 h. mRNA levels for FAS, ABCA1 and ABCG1 were determined by real time PCR and results were normalized to GAPDH expression. HL-60 (10^6 cells/well) were cultured in RPMI medium supplemented with 5% (v/v) fetal bovine serum, penicillin (100 IU/mL), streptomycin (100 ug/mL) y cyprofloxacin (0.4 ug/mL). […] To obtain RNA, at the end of the incubation the cells were collected by centrifugation at 1,000 rpm for 2 min, washed with phosphate buffered saline, and lysed in 300 ul TRIZOL (Invitrogen). RNA samples were suspended in […] of RNAse free water, and their concentration determined (NanoDrop spectrophotometer). […] To obtain cDNA, 1 ug of total RNA was denatured by incubating for 5 min at 70° C., before the addition of a mixture containing 0.5 ug oligo-dT primers and 25 ng/ml of random primers (Invitrogen), 1.0 mM dNTPs (Invitrogen), and 200 U M-MLV reverse transcriptase (Promega); after this the mixture was retrotranscribed at 37° C. for 60 min, followed by an incubation at 95° C. for 5 min to inactivate the enzyme. For the real time PCR amplification (Stratagene Thermal Cycler), cDNA samples were diluted 1/5 to 1/10 depending on the target amplification product. Calibration curves were obtained by use of eight successive 1:2 sample dilutions. Amplifications were carried out in a 25 ul final volume (5 ul cDNA sample plus 20 ul of reaction mixture) in the presence of either 3, 4 or 5 mM MgCl2 (depending on the amplified sequence), 0.25 mM dNTPs (Invitrogen), 1.25 U Taq polymerase (Invitrogen), 1 μM of the specific primers according to the target amplification sequence, and 0.025 μl SYBR Green (Roche). […]

SRBEP-1 = SRBEP-1 expression in HepG2 cells (real time PCR); type: cell-based, human; details: 1 uM, 3 uM and 10 uM, 6 h
Experimental: The cells were incubated for 6 h in the presence of either Compound I (10 uM), or Compound II (10 uM), or the commercial LXR agonist GW3965 (1 uM), or Vehicle [DMSO, 0.1% (v/v)]). To obtain RNA, at the end of the incubation the cells were collected by centrifugation at 1,000 rpm for 2 min, washed with phosphate buffered saline, and lysed in 300 ul TRIZOL (Invitrogen). RNA samples were suspended in ul of RNAse free water, and their concentration determined (NanoDrop spectrophotometer). The ratio of the absorbance at 260 and 280 nm was used to assess RNA purity of an RNA preparation, with a value of 1.8-2.0 indicating pure RNA. To obtain cDNA, 1 ug of total RNA was denatured by incubating for 5 min at 70° C., before the addition of a mixture containing 0.5 ug oligo-dT primers and 25 ng/ml of random primers (Invitrogen), 1.0 mM dNTPs (Invitrogen), and 200 U M-MLV reverse transcriptase (Promega); after this the mixture was retrotranscribed at 37° C. for 60 min, followed by an incubation at 95° C. for 5 min to inactivate the enzyme. For the real time PCR amplification (Stratagene Thermal Cycler), cDNA samples were diluted 1/5 to 1/10 depending on the target amplification product. Calibration curves were obtained by use of eight successive 1:2 sample dilutions. Amplifications were carried out in a 25 ul final volume (5 ul cDNA sample plus 20 ul of reaction mixture) in the presence of either 3, 4 or 5 mM MgCl2 (depending on the amplified sequence), 0.25 mM dNTPs (Invitrogen), 1.25 U Taq polymerase (Invitrogen), 1 μM of the specific primers according to the target amplification sequence, and 0.025 μl SYBR Green (Roche). Melting curves were used to assess the specificity of the amplification products. […]

ABCA1 = ABCA1 expression in HepG2 cells (real time PCR); type: cell-based, human; details: 1 uM, 3 uM and 10 uM, 6 h
LXR-alpha [2] = molecular target: T1, LXR-alpha (Homo sapiens, UniProt Q13133); test: LXR-alpha/RXR LRE-luciferase reporter in transfected BHK cells; type: cell-based; set-up: expressed in transfected cells; host or cells: BHK (baby hamster kidney cells), transient transfection as for HEK293T; details: for stimulation of LXR-alpha-driven gene transcription [(LXRE)-luciferase activity] / effect on LXR-alpha-driven expression of luciferase: 1 uM; for stimulation of LXR-alpha-driven gene transcription [(LXRE)-luciferase activity]: 3 uM and 10 uM; for effect on LXR-alpha-driven expression of luciferase / LXR-alpha-driven luciferase expression, increase compared with vehicle-treated cells: 18 h
T1 sequence (Q13133 1-447): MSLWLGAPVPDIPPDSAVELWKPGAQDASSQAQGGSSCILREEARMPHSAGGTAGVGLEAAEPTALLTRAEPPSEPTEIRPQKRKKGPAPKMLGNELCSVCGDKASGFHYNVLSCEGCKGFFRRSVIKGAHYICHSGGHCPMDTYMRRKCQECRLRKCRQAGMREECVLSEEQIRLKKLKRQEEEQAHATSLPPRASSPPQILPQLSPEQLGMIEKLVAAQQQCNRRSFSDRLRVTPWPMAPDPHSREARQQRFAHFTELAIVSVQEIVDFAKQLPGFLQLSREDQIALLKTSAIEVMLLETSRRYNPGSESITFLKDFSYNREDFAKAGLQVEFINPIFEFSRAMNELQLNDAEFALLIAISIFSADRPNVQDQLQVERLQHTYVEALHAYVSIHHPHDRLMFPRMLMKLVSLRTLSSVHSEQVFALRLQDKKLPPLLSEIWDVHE
T1 sequence (P19793 1-462 partner): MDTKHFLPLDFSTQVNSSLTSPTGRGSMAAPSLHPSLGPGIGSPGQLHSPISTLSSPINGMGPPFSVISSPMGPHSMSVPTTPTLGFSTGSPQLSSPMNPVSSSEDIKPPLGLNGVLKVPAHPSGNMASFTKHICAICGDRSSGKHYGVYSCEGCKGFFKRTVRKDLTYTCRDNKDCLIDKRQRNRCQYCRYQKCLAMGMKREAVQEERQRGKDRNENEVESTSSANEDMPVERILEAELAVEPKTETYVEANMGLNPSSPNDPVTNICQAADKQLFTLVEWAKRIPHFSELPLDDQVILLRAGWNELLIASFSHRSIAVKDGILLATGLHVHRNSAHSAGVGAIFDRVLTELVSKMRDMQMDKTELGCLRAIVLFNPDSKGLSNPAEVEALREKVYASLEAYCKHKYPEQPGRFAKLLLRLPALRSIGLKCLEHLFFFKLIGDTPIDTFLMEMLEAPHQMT
Experimental: B. Baby hamster kidney cells (5×10^5 cells/well) were cultured and transiently transfected as described above (Methods A.) for HEK293T cells. After transfection, the culture medium was replaced by serum-free DMEM, and the cells were incubated for 18 h with either Compound I or Compound II at 1×10^−6 M, 3×10^−6 M or 10^−5 M each, or vehicle [DMSO, 0.1% (v/v) final concentration], or GW3965 at a concentration of 10^−6 M. LXR-alpha activation was determined as described in A.

## CC[C@@H](C(C)C)[C@H](O)[C@@H](O)[C@@H](C)[C@H]1CC[C@H]2[C@@H]3CCC4=CC(=O)CC[C@]4(C)[C@H]3CC[C@]12C [Compound I, (22S,23S)-22,23-dihydroxystigmast-4-en-3-one]
TNF-alpha
  TNF-alpha expression versus DMSO-treated cells: significantly lower
IL-8
  IL-8 expression versus DMSO-treated cells: significantly lower
LXR-alpha [1]
  LXR-alpha expression: stimulated LXR-alpha expression even further
LXR-beta
  LXR-beta expression: stimulated LXR-beta expression even further
ABCG1
  effect on ABCG1 expression: none of the test compounds significantly affected
SRBEP-1
  induction of SRBEP-1 expression: did not induce
ABCA1
  induction of ABCA1 expression: did not induce
LXR-alpha [2]
  stimulation of LXR-alpha-driven gene transcription [(LXRE)-luciferase activity]: within the same concentration range as GW3965
  effect on LXR-alpha-driven expression of luciferase: no effect
LXR-alpha [2]; 3 uM
  LXR-alpha-driven luciferase expression, increase compared with vehicle-treated cells: 3 fold

## CC[C@@H](C(C)C)[C@H](O)[C@@H](O)[C@@H](C)[C@H]1CC[C@H]2[C@@H]3CCC4=CC(=O)C=C[C@]4(C)[C@H]3CC[C@]12C [Compound II, (22S,23S)-22,23-dihydroxystigmasta-1,4-dien-3-one]
TNF-alpha
  TNF-alpha expression versus DMSO-treated cells: significantly lower
IL-8
  IL-8 expression versus DMSO-treated cells: significantly lower
LXR-alpha [1]
  LXR-alpha expression: stimulated LXR-alpha expression even further
LXR-beta
  LXR-beta expression: more modest than that observed for Compound I
ABCG1
  effect on ABCG1 expression: none of the test compounds significantly affected
SRBEP-1
  induction of SRBEP-1 expression: did not induce
ABCA1
  induction of ABCA1 expression: did not induce
LXR-alpha [2]
  stimulation of LXR-alpha-driven gene transcription [(LXRE)-luciferase activity]: within the same concentration range as GW3965
  effect on LXR-alpha-driven expression of luciferase: no effect
LXR-alpha [2]; 3 uM
  LXR-alpha-driven luciferase expression, increase compared with vehicle-treated cells: 3 fold
LXR-alpha [2]; 10 uM
  LXR-alpha-driven luciferase expression, increase compared with vehicle-treated cells: 3 fold
